Source: US10918719B2, “Methods for cross-linking corneal collagen with verteporfin for the treatment of disorders of the eye” (Massachusetts Eye and Ear Infirmary, priority 2014, dated 2021)

How the values were obtained:
Human research corneas [1] = assay: Gross observation of corneal rigidity / curvature; conditions: for rigidity on gross examination versus untreated corneas: cornea strips placed horizontally in a clamp (FIG. 3); for Gross observation: ex vivo treated corneas
Description: (§1) The biomechanical properties of untreated corneas and corneas treated with R+UVA and V+NTL6 were measured using gross observation, compression, creep and tensile strength testing. The corneas were stored in Optisol GS and refrigerated at 4° C. until the time of testing.
For example, when cornea strips were placed horizontally in a clamp, the tissue treated by V+NTL6 and by R+UVA were noted to have a more pronounced curvature than the untreated control group (FIG. 3).

[2] = test system: Human research corneas (corneal strips); assay: Tensile strength testing (strip extensometry); conditions: for maximum stress observed prior to failure: tensile test at 0.025 mm/sec until failure, untreated 3.02 (FIG. 8); for maximum modulus value (tensile): versus untreated corneas (FIG. 9B); for instantaneous modulus values at 4%, 6%, and 8% strain (toe region): versus untreated corneas (FIG. 11)
Description: as §1
A rectangular strip of corneal tissue (approximately 3 mm wide and 14 mm long) was cut from each sample with a scalpel. The corneal strips were individually clamped between the two jaws of a microcomputer-controlled biomaterial tester (Minimat, Rheometriv Scientific GmbH).^15-20 Tensile testing was performed using a Shimadzu AGS-X (Cambridge Polymer Group, Inc. 56 Roland St suite 310, Boston, Mass. 02129, United States) load frame equipped with a 50 N load cell and pneumatic grips, which were lined with sandpaper for prevent tissue slippage. The pneumatic grips compensated for any dimensional change as the samples were stretched and allowed a fixed grip pressure of 35 pressure per square inch (psi) to be applied. The initial grip separation was set to 4.5 mm and tested at a rate of 0.025 mm/sec until failure. The strain (ε) was then increased linearly at a certain velocity, and the relative stress (s) was measured.
In this study, strip extensometry was performed using rectangular strips of corneal tissue that was extracted from untreated and treated corneas. The maximum stress observed prior to failure, the maximum modulus values, and the instantaneous modulus values at specific strain percentages were calculated. The stress-strain data can be broadly separated into two regions: an initial toe region that covers strain values typically observed in vivo, and the region covering extreme deformations not likely to be observed in vivo.
Finally, the initial toe region of each sample group was compared. The stress-strain data was offset such that the sample length at a stress of 0.02 MPa was defined as 0% strain (this offset is equivalent to defining a pre-stress of […] at the start of the tensile test). A representative plot showing the toe region of the tensile data for one specimen from each sample group is shown in FIG. 10, and the instantaneous modulus values at 4%, 6%, and 8% strain for each sample group are shown in FIG. 11.

Human research corneas [3] = assay: Compression testing (Q800 DMA), Young's modulus; conditions: for slope of the stress-strain compression data versus untreated corneas: FIG. 5; for Young's modulus: linear fit of stress-strain curve between 0.08 and 0.10 MPa, untreated 0.43 MPa
Description: as §1
Compression testing was performed using a Q800 DMA (TA instruments). The tissue was placed within a submersion clamp and centered beneath a custom 8 mm diameter compression plate, as shown in FIG. 2. The submersion clamp was filled with 1× phosphate buffered saline (PBS) solution to prevent the sample from drying out during the test.
The elasticity of any tissue can be determined by measuring the stress (force on a cross-section point) and its relative strain (proportional deformation)^12,14. The Young's modulus is the proportion between the stress and strain values and reflects the elasticity of the tissue. A small Young's modulus value reflects more elasticity of a material and is represented in units of Newton/m^2.
Young's modulus was calculated as a linear fit of the final portion of the stress-strain curve, between stress values of 0.08 and 0.10 MPa (FIG. 6). Tissue treated by R+UVA and V+NTL6 had statistically larger moduli than untreated corneas. Corneas treated by V+NTL6 appeared to be slightly more stiff (0.80 vs 0.43 MPa, p<0.005) than those treated by R+UVA (0.70 vs 0.43 MPa, p<0.05), however this difference was not statistically significant.

[4] = test system: Human research corneas (de-epithelialized, 8.5-mm buttons) in collagenase A; assay: Resistance to collagenase A digestion (time to total dissolution of cornea buttons); conditions: 0.3% collagenase A, 37° C.; for time to dissolution in collagenase A: untreated corneas 5.47 ± 0.21 hours; for Collagenase time to dissolution: 150 rpm, ex vivo de-epithelialized corneas, n=5, mean ± SD
Excerpt: Human research corneas were obtained from Tissue Bank International (Baltimore, Md.) and North Carolina Eye Bank (Winston-Salem, N.C.). Riboflavin 5′-phosphate sodium salt hydrate, 20% (w/w) dextran solution (from Leuconostoc mesenteroides) and collagenase A (from Clostridium histolyticum, E.C. 3.4.24.3) were obtained from Sigma Aldrich (St. Louis, Mo.). Barron® artificial anterior chambers were purchased from Katena Eye Instruments (Denville, N.J.). The VEGA LED-based UV emitter was purchased from Costruzione Strumenti Oftalmici (Firenze, Italy). The Excells E24 incubator shaker series was purchased from New Brunswick Scientific (Enfield, Conn.).
The corneas were obtained in OptiZol® solution and stored at 4° C. until use. All experiments were performed within 2 weeks from the date of death of the donor. Each cornea was fitted into a Barron® artificial anterior chamber with normal balanced salt solution followed by mechanical removal of 8 mm of the central corneal epithelium with a blunt blade.
Conventional riboflavin-UVA (R+UVA) crosslinking was performed in an ex vivo fashion according to the Dresden protoco.^1-2 50 mg of riboflavin 5′-phosphate was added to 50 mL of dextran (w/w) and mixed thoroughly to make 0.1% riboflavin (1 mg/mL) solution. All solutions were covered in aluminum foil for protection from room UV light and stored at 4° C. until use. Riboflavin solution was topically administered every 5 minutes onto the surface of the de-epithelialized cornea for total instillation period of 30 minutes. UVA 370 nm light (X-Vega, Sooft SPA) was then focused onto the surface of the cornea at an irradiance of 3 mW/cm^2 (5.4 J/cm^2 fluence) for 5 minutes. The five-minute UVA exposure sequence was repeated 5 more times for a total UVA exposure time of 30 minutes. Prior to each 5-minute UVA treatment sequence, one drop of balanced salt solution and one drop of riboflavin were administered onto the surface of the cornea.
Each de-epithelialized cornea was placed on a Barron® artificial anterior chamber and underwent a treatment protocols (below) that included either topical verteporfin solution alone, non-thermal laser alone, or a combination of both topical verteporfin and non-thermal laser. Verteporfin solution was applied topically using the same formulation that is administered intravenously for the treatment of choroidal neovascularization^3-8 (6 mg/mL, Visudyne; Novartis Ophthalmics AG, Hettingen, Switzerland). A 689 nm wavelength non-thermal laser (Opal Photoactivator; Coherent Inc., Santa Clara, Calif.) was applied using a spot size of 7 mm at a power intensity of 600 mW/cm^2.
1. Topical verteporfin (V), without laser: Verteporfin solution was topically administered onto the surface of a de-epithelialized cornea every minute for 15 minutes. The tissue was not exposed to laser therapy.
3. Combined treatment of verteporfin with non-thermal laser for one treatment sequence (V+NTL-1): Verteporfin, which was prepared at a dose of 6 mg/ml (one drop per minute) was applied onto the de-epithelialized corneas every minute for fifteen minutes followed by one NTL treatment sequence. A 689 nm nonthermal laser light was delivered directly over a cornea with spot sizes (7 mm) at a power intensity of 600 mW/cm^2 for one minute only.
4. Combined treatment of Verteporfin with Non-Thermal Laser Therapy for six treatment sequences (V+NTL-6): Verteporfin solution (6 mg/ml) was topically applied every minute for fifteen minutes followed by six NTL sequences. One drop of balanced salt solution and one drop of verteporfin was administered between each treatment sequence. […]

Human research corneas [5] = assay: Creep testing under constant force of 15 N; conditions: constant force 15 N, between 0 and 4.25 minutes; untreated −3.46
Description: The biomechanical properties of untreated corneas and corneas treated with R+UVA and V+NTL6 were measured using gross observation, compression, creep and tensile strength testing. The corneas were stored in Optisol GS and refrigerated at 4° C. until the time of testing. […] The sample was held under a constant force of 15 N and the strain was measured over a period of 4.25 minutes. Creep testing has been used to evaluate the biomechanical strength of tissue, such as the cornea, by applying a constant stress and monitoring the rate of deformation ^21In this study, cornea tissue was kept under a constant stress using a compression force of 15 N and then the slope of the strain-time curve was calculated between 0 and 4.25 minutes and represented the rate of tissue deformation.

Molecule: Cc1cc2nc3c(=O)[nH]c(=O)nc-3n(C[C@H](O)[C@H](O)[C@H](O)COP(=O)([O-])O)c2cc1C.[Na+] [R+UVA, Riboflavin 5′-phosphate sodium salt hydrate]
- rigidity on gross examination versus untreated corneas (Human research corneas [1]): much more rigidity than untreated corneas
- maximum stress observed prior to failure [2]: larger stress values prior to failure
- maximum modulus value (tensile) [2]: statistically larger maximum modulus values than untreated corneas
- instantaneous modulus values at 4%, 6%, and 8% strain (toe region) [2]: no statistically significant difference was observed
- slope of the stress-strain compression data versus untreated corneas (Human research corneas [3]): steeper
- Young's modulus (Human research corneas [3]): 0.70 MPa
- time to dissolution in collagenase A ([4]; listed as riboflavin-UVA, sodium salt hydrate): 20.06 ± 1.23 h
- time to dissolution in collagenase A ([4]; sodium salt hydrate): 20.06 h
- creep rate (slope of the strain-time curve) (Human research corneas [5]): faster creep rate, but the difference was not statistically significant

Molecule: verteporfin
- Gross observation (Human research corneas [1]): No rigidity
- Collagenase time to dissolution [4]: 5.95 ± 0.33 h
- time to dissolution in collagenase A [4]: 5.95 h

Molecule: verteporfin [V+NTL1]
- Gross observation (Human research corneas [1]; listed as V-NLT-1): No rigidity
- Collagenase time to dissolution ([4]; listed as V-NLT-1): 5.96 ± 0.39 h
- time to dissolution in collagenase A [4]: 5.96 ± 0.39 h

Molecule: verteporfin [V+NTL6]
- rigidity on gross examination versus untreated corneas (Human research corneas [1]): much more rigidity than untreated corneas
- Gross observation (Human research corneas [1]; listed as V-NLT-6): Cornea rigid
- maximum stress observed prior to failure [2]: 7.67
- maximum modulus value (tensile) [2]: statistically larger maximum modulus values than untreated corneas
- instantaneous modulus values at 4%, 6%, and 8% strain (toe region) [2]: statistically larger modulus values than untreated corneas
- slope of the stress-strain compression data versus untreated corneas (Human research corneas [3]): steeper
- Young's modulus (Human research corneas [3]): 0.80 MPa
- Collagenase time to dissolution ([4]; listed as V-NLT-6): 19.75 ± 0.95 h
- time to dissolution in collagenase A [4]: 19.75 ± 0.95 h
- creep rate (slope of the strain-time curve) (Human research corneas [5]): −1.87
